Results reported in EP3020415A1, “Thiol compounds for use in bacterial infections” (Université de Fribourg, priority 2014, dated 2016).
Several values for one entry are separate records, joined by “and”; a condition that tells them apart may be missing. Equal entries are not always repeated. Where two headings read alike, the source gives them in different places. Blank lines part the entries; values can stand above or below the compound they belong to.

Experiments:
[1] = system: E. coli TOP10 pCR2.1-(PNDM-1-blaNDM-1-bleMBL); experiment: Preliminary MIC of imipenem with DMPS, broth microdilution; format: cell-based; conditions: MIC values of imipenem; 0 to 30 mM of DMPS; zinc-complemented M9CA medium; data not shown
[2] = molecular target: IMP-1 (Serratia marcescens, UniProt P52699); experiment: biochemical
[3] = molecular target: KPC-3 (Klebsiella pneumoniae, UniProt Q9F663, H272Y); experiment: In-vitro inhibition of purified enzyme, non-metallo-enzyme negative control
[4] = molecular target: NDM-1 (Klebsiella pneumoniae, UniProt C7C422); experiment: biochemical
[5] = molecular target: NDM-4 (Escherichia coli, UniProt H6WZS9); experiment: In-vitro inhibition of purified metallo-ß-lactamase, UV spectrophotometry
[6] = in vivo, cited from earlier work
[7] = molecular target: VIM-1 (Pseudomonas aeruginosa, UniProt A0A0F7KYQ8); experiment: biochemical
[8] = system: K. pneumoniae OXA-48; experiment: MIC of carbapenems with or without DMPS (non-MBL control); format: cell-based; conditions: K. pneumoniae OXA-48 (control), carbapenem without DMPS, Zn 5mg/L
Procedure: (§1) DMPS was evaluated as inhibitor of MBLs using a panel of strains producing the most clinically significant carbapenemases of the metallo-enzyme group. Minimum inhibitory concentrations (MICs) of carbapenems were determined in-vitro with strains (reference and clinical) producing main types of class B carbapenemases which are IMP, VIM, NDM, GIM and SPM with or without DMPS at various concentrations. […] The studied strains were clinical isolates (to mirror multidrug resistance in clinical isolates) for which a precise ß-lactamase gene content is known (Table 1). The strains were NDM, VIM-, IMP, SPM and GIM and producers as well as control of a non-MBL producer (OXA-48). The selected concentration of DMPS was 1-fold, […] and 30-fold (3 mM) that of the human peak serum concentration after a single IV dose of DMPS (Aposhian,1983).
(§2) A 100 mM DMPS stock solution (Sigma Aldrich, France) (pH 5.0) was prepared in 0.2 M NaOH as recommended (Maiorino et al. 1990) and pH was neutralized to pH 7.0 with NaHCO3 Na2Ca-EDTA (Sigma Aldrich, France) dissolved in water.

[9] = system: P. aeruginosa VIM-2; experiment: MIC of carbapenems with or without DMPS; format: cell-based; conditions: Zn 5mg/L
Procedure: as §1, §2

[10] = system: P. putida VIM-2; experiment: MIC of carbapenems with or without DMPS; format: cell-based; conditions: Pseudomonas putida, VIM2
Procedure: as §1, §2

[11] = system: C. freundii VIM-2; experiment: MIC of carbapenems with or without DMPS; format: cell-based; conditions: Zn 5mg/L
Procedure: as §1, §2

[12] = system: K. pneumoniae IMP-4; experiment: MIC of carbapenems with or without DMPS; format: cell-based; conditions: Zn 5mg/L
Procedure: as §1, §2

[13] = system: P. aeruginosa GIM-1; experiment: MIC of carbapenems with or without DMPS; format: cell-based; conditions: Zn 5mg/L
Procedure: as §1, §2

[14] = system: P. aeruginosa SPM1; experiment: MIC of carbapenems with or without DMPS; format: cell-based; conditions: Pseudomonas aeruginosa, carbapenem without DMPS, Zn 5mg/L
Procedure: as §1, §2

[15] = system: P. aeruginosa NDM1; experiment: MIC of carbapenems with or without DMPS; format: cell-based; conditions: carbapenem without DMPS, Zn 5mg/L
Procedure: as §1, §2

[16] = system: P. aeruginosa VIM-1; experiment: MIC of carbapenems with or without DMPS; format: cell-based
Procedure: as §1, §2

[17] = system: K. pneumoniae NDM-1; experiment: MIC of carbapenems with or without DMPS; format: cell-based; conditions: Zn 5mg/L
Procedure: as §1, §2

[18] = system: A. baumannii NDM-1; experiment: MIC of carbapenems with or without DMPS; format: cell-based
Procedure: as §1, §2

[19] = system: E. cloacae GIM-1; experiment: MIC of carbapenems with or without DMPS; format: cell-based; conditions: Zn 5mg/L
Procedure: as §1, §2

[20] = system: P. aeruginosa IMP-13; experiment: MIC of carbapenems with or without DMPS; format: cell-based
Procedure: as §1, §2

[21] = system: E. coli NDM-4; experiment: MIC of carbapenems with or without DMPS; format: cell-based; conditions: Zn 5mg/L
Procedure: as §1, §2

[22] = system: A. baumannii IMP-4; experiment: MIC of carbapenems with or without DMPS; format: cell-based; conditions: Acinetobacter baumannii, IMP4, carbapenem without DMPS, Zn 5mg/L
Procedure: as §1, §2

[23] = system: K. pneumoniae IMP-8; experiment: MIC of carbapenems with or without DMPS; format: cell-based; conditions: Zn 5mg/L
Procedure: as §1, §2

[24] = system: E. coli NDM-1; experiment: MIC of carbapenems with or without DMPS; format: cell-based; conditions: Zn 5mg/L
Procedure: as §1, §2

[25] = system: K. pneumoniae VIM-4; experiment: MIC of carbapenems with or without DMPS; format: cell-based; conditions: Zn 5mg/L
Procedure: as §1, §2

[26] = system: E. coli NDM-5; experiment: MIC of carbapenems with or without DMPS; format: cell-based; conditions: Zn 5mg/L
Procedure: as §1, §2

Structure (SMILES): O=S(=O)([O-])CC(S)CS.[Na+] (racemic) [DMPS]
maximal inhibition efficiency (DMPS concentration) [1]: 50 mM | IC50 [2]: 70 µM | IC50 [3]: > 10000 µM | IC50 [4]: 80 µM | IC50 [5]: 110 µM | serum concentration ([6]; iv): ca. 110 µM | elimination [6]: mostly eliminated by urines | IC50 [7]: 180 µM

Structure (SMILES): C[C@@H](O)[C@H]1C(=O)N2C(C(=O)O)=C(SCCN=CN)C[C@H]12 [IPM, imipenem]
MIC ([8]; Klebsiella pneumoniae, OXA48, read-out: MIC): 32 µg/mL | MIC ([9]; Pseudomonas aeruginosa, VIM2, carbapenem without DMPS, read-out: MIC): 1020 µg/mL | MIC [10]: 128 µg/mL | MIC ([11]; Citrobacter freundii, VIM2, carbapenem without DMPS, read-out: MIC): 2 µg/mL | MIC ([12]; Klebsiella pneumoniae, IMP4, carbapenem without DMPS, read-out: MIC): 16 µg/mL | MIC ([13]; Pseudomonas aeruginosa, GIM1, carbapenem without DMPS, read-out: MIC): > 1020 µg/mL | MIC [14]: 1020 µg/mL | MIC ([15]; Pseudomonas aeruginosa, read-out: MIC): 1020 µg/mL | MIC ([16]; Pseudomonas aeruginosa, VIM1): 128 µg/mL | MIC ([17]; Klebsiella pneumoniae, NDM1, carbapenem without DMPS, read-out: MIC): 64 µg/mL | MIC ([18]; Acinetobacter baumannii, NDM1): 128 µg/mL | MIC ([19]; Enterobacter cloacae, GIM1, carbapenem without DMPS, read-out: MIC): 8 µg/mL | MIC ([20]; Pseudomonas aeruginosa, IMP13): 128 µg/mL | MIC ([21]; Escherichia coli, NDM4, carbapenem without DMPS, read-out: MIC): 64 µg/mL | MIC [22]: 64 µg/mL | MIC ([23]; Klebsiella pneumoniae, IMP8, carbapenem without DMPS, read-out: MIC): 8 µg/mL | MIC ([24]; Escherichia coli, NDM1, carbapenem without DMPS, read-out: MIC): 8 µg/mL | MIC ([25]; Klebsiella pneumoniae, VIM4, carbapenem without DMPS, read-out: MIC): 64 µg/mL | MIC ([26]; Escherichia coli, NDM5, carbapenem without DMPS, read-out: MIC): 64 µg/mL

MIC [8]: 32 µg/mL | MIC ([9]; carbapenem without DMPS): 1,024 µg/ml | MIC ([11]; carbapenem without DMPS): 0.06 µg/mL | MIC ([12]; carbapenem without DMPS): 16 µg/mL | MIC ([13]; carbapenem without DMPS): 1,024 µg/ml | MIC [15]: 256 µg/mL | MIC ([16]; P. aeruginosa VIM-1, carbapenem without DMPS, Zn 5mg/L): 256 µg/mL | MIC ([17]; carbapenem without DMPS): 64 µg/mL | MIC ([18]; A. baumannii NDM-1, carbapenem without DMPS, Zn 5mg/L): 256 µg/mL | MIC ([19]; carbapenem without DMPS): 16 µg/mL | MIC ([20]; P. aeruginosa IMP-13, carbapenem without DMPS, Zn 5mg/L): 64 µg/mL | MIC ([21]; carbapenem without DMPS): 64 µg/mL | MIC ([23]; carbapenem without DMPS): 2 µg/mL | MIC ([24]; carbapenem without DMPS): 32 µg/mL and 16 µg/mL | MIC ([25]; carbapenem without DMPS): 32 µg/mL | MIC ([26]; carbapenem without DMPS): 64 µg/mL
Structure (SMILES): C[C@@H](O)[C@H]1C(=O)N2C(C(=O)O)=C(S[C@@H]3CN[C@H](C(=O)N(C)C)C3)[C@H](C)[C@H]12 [MEM, meropenem]
